IC50 and viability data for 23 molecules are collected here from ChEMBL document CHEMBL4414581, “Cytotoxic Limonoids from the Twigs and Leaves of Toona ciliata” (J Nat Prod, 2019).

One data set has as its system A549. Description: Cytotoxicity against human A549 cells assessed as reduction in cell viability measured after 48 hrs by MTS assay. The class given is functional, cell-based. To be noted: A549, 48 h.
The nature of data set [1]: Cytotoxicity against human […] cells assessed as reduction in cell viability measured after 48 hrs by MTS assay. It counts as functional, cell-based. A general note: Tetrazolium assays rely on reduction of a dye to a coloured formazan, in cell work by metabolically active cells.
Another data set has as its system SW480. Put plainly: Cytotoxicity against human SW480 cells assessed as reduction in cell viability measured after 48 hrs by MTS assay. The class given is functional, cell-based. The following applies: SW480, 48 h.
For another data set, the system named is HL-60. Put plainly: Cytotoxicity against human HL60 cells assessed as reduction in cell viability measured after 48 hrs by MTS assay. The class given is functional, cell-based. To be noted: HL-60, 48 h.
The test system of a further data set is MCF7. Description: Cytotoxicity against human MCF7 cells assessed as reduction in cell viability measured after 48 hrs by MTS assay. The following applies: MCF7, 48 h. The class given is functional, cell-based.
A further data set relates to RAW264.7. Put plainly: Anti-inflammatory activity in mouse RAW264.7 cells assessed as inhibition of LPS-induced nitric oxide production measured after 18 hrs by Griess assay. The class given is functional, cell-based. To be noted: RAW264.7, 18 h. On the technique in general: The Griess reaction detects nitrite, a stable product of nitric oxide.
A short description of data set [2]: Cytotoxicity against mouse RAW264.7 cells assessed as cell viability measured after 48 hrs by MTS assay relative to control. It counts as cell-based. To be noted: read-out: Activity.

As a reminder, the IC50 is the midpoint of a concentration-inhibition curve.

A value given as a limit tells only on which side of the number the result lay.

For the molecule `CC1(C)C(=O)C=C[C@]2(C)C3=CC[C@@]4(C)[C@H](C5=CCNC5=O)C[C@H]5O[C@]54[C@]3(C)C(=O)C[C@@H]12`, the IC50 (in the data set with A549; in data set [1]; in the data set on SW480; in the data set with HL-60; in the data set with MCF7) was over 10 µM each time.

For the molecule `C[C@]12[C@H](C[C@H](O)[C@]3(C)OC(=O)[C@H](O)[C@]13O)O[C@@H]1C[C@@]3(C)[C@H](c4ccoc4)C[C@H]4O[C@]43[C@](C)(O)[C@H]12`, the IC50 (with A549; in data set [1]; in the data set with SW480; in the data set with HL-60; in the data set with MCF7) was over 10 µM each time.

Take `C[C@]12[C@H](C[C@H](O)[C@]3(C)OC(=O)[C@H](O)[C@]13O)O[C@H]1[C@H]2[C@@](C)(O)[C@@]23O[C@@H]2C[C@@H](c2ccoc2)[C@]3(C)[C@H]1O`: the IC50 (with A549; in data set [1]; in the data set on SW480; with HL-60; with MCF7) was over 10 µM in each case.

Consider `C[C@]12[C@H]3[C@@H](C[C@@]4(C)[C@H](C5=CCNC5=O)C[C@H]5O[C@]54[C@]3(C)O)O[C@@]1(O)C=C[C@]1(C)OC(=O)[C@H](O)[C@]21O`, for which the IC50 (with A549; in data set [1]; with SW480; in the data set with HL-60; in the data set on MCF7) was over 10 µM throughout.

Consider `CC1(C)OC(=O)C=C[C@]2(C)[C@H]3CC[C@@]4(C)[C@H](C5=CC(=O)NC5=O)C[C@H]5O[C@]54[C@]3(C)C(=O)C[C@@H]12`, for which the IC50 in the data set on A549 is over 10 µM; in data set [1], over 10 µM; with SW480 it was over 10 µM; with RAW264.7 it was 28.3 µM; with HL-60, over 10 µM; in the data set on MCF7, over 10 µM. Besides, the viability at 48 h in data set [2] was over 100%.

Turning to `CC(=O)O[C@H]1C(=O)O[C@@]2(C)[C@H](OC(C)=O)C[C@@H]3O[C@@H]4C[C@@]5(C)[C@H](c6ccoc6)C[C@H]6O[C@]65[C@](C)(O)[C@H]4[C@]3(C)[C@@]12O`, the IC50 with A549 was over 10 µM; in data set [1], over 10 µM; with SW480, 2.3 µM; in the data set on HL-60, over 10 µM; with MCF7 it was 2.1 µM.

On to `C[C@]12[C@H](C[C@@H](O)[C@]3(C)OC(=O)[C@H](O)[C@]13O)O[C@@H]1C[C@@]3(C)[C@H](c4ccoc4)C[C@H]4O[C@]43[C@](C)(O)[C@H]12`, for which the IC50 is over 10 µM in the data set on A549; over 10 µM in data set [1]; 0.9 µM in the data set with SW480; 0.6 µM in the data set with HL-60; 0.9 µM in the data set with MCF7.

Take `CC(=O)O[C@@H]1C[C@]2(C)[C@@H](C(=O)C[C@H]2c2ccoc2)[C@]2(C)[C@H](O)C[C@H]3C(C)(C)OC(=O)C=C[C@]3(C)[C@@H]12`: the IC50 (with A549; in data set [1]; in the data set with SW480; with HL-60; in the data set on MCF7) was over 10 µM in each case.

For the molecule `CO[C@@H]1C=C([C@@H]2C[C@H]3O[C@@]34[C@@]2(C)CC[C@@H]2[C@@]3(C)C=CC(=O)OC(C)(C)[C@@H]3CC(=O)O[C@]24C)C(=O)O1`, the half-maximal inhibitory concentration (IC50) (with A549; in data set [1]; in the data set with SW480; in the data set with HL-60; with MCF7) was over 10 µM in each case.

As for `CO[C@]12C=C[C@]3(C)OC(=O)[C@H](O)[C@]3(O)[C@@]1(C)[C@H]1[C@@H](C[C@@]3(C)[C@H](c4ccoc4)C[C@H]4O[C@]43[C@]1(C)O)O2`, the IC50 (with A549; in data set [1]; in the data set on SW480; with HL-60; in the data set on MCF7) was over 10 µM throughout.

Consider `CC1(C)OC(=O)C=C[C@]2(C)[C@H]3[C@H](O)C[C@@]4(C)[C@H](c5ccoc5)C[C@H]5O[C@]54[C@]3(C)C(=O)C[C@@H]12`, for which the half-inhibitory concentration (IC50) (with A549; in data set [1]; in the data set on SW480; in the data set on HL-60; in the data set with MCF7) was over 10 µM throughout.

Take `CC(=O)O[C@@H]1C[C@@H]2O[C@@H]3C[C@@]4(C)[C@H](c5ccoc5)C[C@H]5O[C@]54[C@](C)(O)[C@H]3[C@]2(C)[C@@]2(O)[C@@H](O)C(=O)O[C@@]12C`: the IC50 is over 10 µM in the data set on A549; over 10 µM in data set [1]; 3.7 µM in the data set with SW480; over 10 µM with HL-60; 2.4 µM in the data set on MCF7.

On to `C[C@]12[C@H](c3ccoc3)C[C@H]3O[C@]31[C@](C)(O)[C@@H]1[C@H](O[C@@]3(O)C=C[C@]4(C)OC(=O)[C@H](O)[C@]4(O)[C@@]13C)[C@@H]2O`, for which the IC50 (in the data set on A549; in data set [1]; in the data set on SW480; in the data set on HL-60; in the data set on MCF7) was over 10 µM throughout.

Consider `CC(=O)O[C@H]1[C@@H](OC(C)=O)[C@]2(C)[C@H]([C@H](O)C[C@@]3(C)[C@H](c4ccoc4)C[C@H]4O[C@@]423)[C@@]2(C)C=CC(=O)OC(C)(C)[C@H]12`, for which the IC50 (with A549; in data set [1]; in the data set on SW480; in the data set on HL-60; in the data set with MCF7) was over 10 µM each time.

On to `CC(=O)O[C@H]1[C@H]2O[C@H]3C[C@@H](O)[C@]4(C)OC(=O)[C@H](O)[C@]4(O)[C@@]3(C)[C@@H]2[C@@](C)(O)[C@@]23O[C@@H]2C[C@@H](c2ccoc2)[C@]13C`, for which the IC50 is over 10 µM in the data set on A549; over 10 µM in data set [1]; 4 µM in the data set with SW480; 1.6 µM in the data set with HL-60; 3.7 µM in the data set with MCF7.

As for `CC1(C)OC(=O)C=C[C@]2(C)[C@H]3CC[C@@]4(C)[C@H](C5=CCNC5=O)C[C@H]5O[C@]54[C@]3(C)OC(=O)C[C@@H]12`, the IC50 (with A549; in data set [1]; with SW480; in the data set on HL-60; in the data set on MCF7) was over 10 µM in each case.

For the molecule `C[C@]12[C@H](CC(=O)[C@]3(C)OC(=O)[C@H](O)[C@]13O)O[C@@H]1C[C@@]3(C)[C@H](c4ccoc4)C[C@H]4O[C@]43[C@](C)(O)[C@H]12`, the IC50 was over 10 µM in the data set with A549; over 10 µM in data set [1]; 2.3 µM with SW480; 0.8 µM with HL-60; 4 µM in the data set on MCF7.

With `CO[C@@H]1C=C([C@@H]2C[C@H]3O[C@@]34[C@@]2(C)C[C@H]2O[C@@]3(O)C=C[C@]5(C)OC(=O)[C@H](O)[C@]5(O)[C@@]3(C)[C@@H]2[C@@]4(C)O)C(=O)O1`, the IC50 (with A549; in data set [1]; with SW480; with HL-60; in the data set with MCF7) was over 10 µM throughout.

Consider `CC1(C)OC(=O)C=C[C@]2(C)[C@H]3CC[C@]4(C)[C@@H](C(=O)C[C@H]4c4ccoc4)[C@]3(C)[C@H](O)C[C@@H]12`, for which the IC50 (in the data set on A549; in data set [1]; in the data set on SW480; with HL-60; with MCF7) was over 10 µM each time.

For the molecule `CO[C@@H]1C=C([C@@H]2C[C@H]3O[C@@]34[C@@]2(C)C[C@H]2O[C@H]3C[C@H](O)[C@]5(C)OC(=O)[C@H](O)[C@]5(O)[C@@]3(C)[C@@H]2[C@@]4(C)O)C(=O)O1`, the IC50 (in the data set with A549; in data set [1]; in the data set on SW480; with HL-60; in the data set with MCF7) was over 10 µM each time.

Regarding `CC1(C)OC(=O)C=C[C@]2(C)[C@H]3C[C@H](O)[C@@]4(C)[C@H](c5ccoc5)C[C@H]5O[C@]54[C@]3(C)OC(=O)C[C@@H]12`, the IC50 (in the data set on A549; in data set [1]; in the data set with SW480; in the data set on HL-60; in the data set with MCF7) was over 10 µM each time.

Regarding `C[C@]12[C@H]3[C@@H](C[C@@]4(C)[C@H](c5ccoc5)C[C@H]5O[C@]54[C@]3(C)O)O[C@@]1(O)C=C[C@]1(C)OC(=O)[C@H](O)[C@]21O`, the IC50 in the data set with A549 is over 10 µM; in data set [1], over 10 µM; with SW480, 1.5 µM; in the data set on HL-60 it was 2.3 µM; in the data set with MCF7, 2.1 µM.

With `C[C@]12[C@H](CC(=O)[C@]3(C)OC(=O)[C@H](O)[C@]13O)O[C@H]1[C@H]2[C@@](C)(O)[C@@]23O[C@@H]2C[C@@H](c2ccoc2)[C@]3(C)[C@H]1O`, the IC50 in the data set on A549 was over 10 µM; in data set [1], over 10 µM; in the data set on SW480 it was 2.5 µM; with HL-60 it was 0.9 µM; in the data set with MCF7, 3 µM.
